Results on 20 compounds are retold here after US7129269B2, “Compound” (Sterix Ltd., priority 1996, dated 2006).

Series [1] deals with T1, oestrone sulphatase (E1-STS) (Homo sapiens, UniProt P08842).
T1 construct: endogenous in cells; host or cells: MCF-7 breast cancer cells
T1 sequence (P08842 22-583): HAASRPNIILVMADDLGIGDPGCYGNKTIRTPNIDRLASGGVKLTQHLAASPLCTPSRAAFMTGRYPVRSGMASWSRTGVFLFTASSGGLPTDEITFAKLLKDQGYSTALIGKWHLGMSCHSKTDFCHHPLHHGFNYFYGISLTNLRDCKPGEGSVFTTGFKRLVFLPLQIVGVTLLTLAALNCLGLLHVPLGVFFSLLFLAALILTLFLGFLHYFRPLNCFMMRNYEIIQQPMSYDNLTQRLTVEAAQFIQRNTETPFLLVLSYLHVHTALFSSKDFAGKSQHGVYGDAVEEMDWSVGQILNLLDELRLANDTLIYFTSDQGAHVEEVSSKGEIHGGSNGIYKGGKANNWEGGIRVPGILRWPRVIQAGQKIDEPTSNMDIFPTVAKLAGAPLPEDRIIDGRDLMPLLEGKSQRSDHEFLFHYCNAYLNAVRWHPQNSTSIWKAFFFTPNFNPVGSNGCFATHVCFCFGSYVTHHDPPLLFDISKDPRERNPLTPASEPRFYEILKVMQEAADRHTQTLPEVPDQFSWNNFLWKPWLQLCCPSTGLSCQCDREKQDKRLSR
Put plainly: Oestrone sulphatase (E1-STS) inhibition in intact MCF-7 breast cancer cells. In kind it is cell-based.

The next series concerns the target T2, aromatase (Homo sapiens, UniProt P11511).
T2 sequence (P11511 1-503): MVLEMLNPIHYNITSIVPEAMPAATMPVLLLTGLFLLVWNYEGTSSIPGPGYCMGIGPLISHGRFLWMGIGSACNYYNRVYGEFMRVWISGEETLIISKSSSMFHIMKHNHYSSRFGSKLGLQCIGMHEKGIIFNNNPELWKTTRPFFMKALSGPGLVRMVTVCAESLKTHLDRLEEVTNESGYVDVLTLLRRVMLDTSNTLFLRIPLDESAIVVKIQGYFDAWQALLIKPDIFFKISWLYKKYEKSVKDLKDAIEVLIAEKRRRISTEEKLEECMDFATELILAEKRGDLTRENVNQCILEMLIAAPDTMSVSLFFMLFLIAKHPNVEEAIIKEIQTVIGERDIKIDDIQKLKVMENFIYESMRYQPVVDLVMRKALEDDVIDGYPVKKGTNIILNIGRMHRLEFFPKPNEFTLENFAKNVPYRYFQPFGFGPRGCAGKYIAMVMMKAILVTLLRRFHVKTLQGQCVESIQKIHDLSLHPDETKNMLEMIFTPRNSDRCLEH
As to the kind of experiment: Aromatase inhibition in placental microsomes, tritiated water release assay.

Another series addresses T3, oestrone sulphatase (Rattus norvegicus, UniProt P15589).
T3 construct: from tissue; host or cells: rat liver
T3 sequence (P15589 20-577): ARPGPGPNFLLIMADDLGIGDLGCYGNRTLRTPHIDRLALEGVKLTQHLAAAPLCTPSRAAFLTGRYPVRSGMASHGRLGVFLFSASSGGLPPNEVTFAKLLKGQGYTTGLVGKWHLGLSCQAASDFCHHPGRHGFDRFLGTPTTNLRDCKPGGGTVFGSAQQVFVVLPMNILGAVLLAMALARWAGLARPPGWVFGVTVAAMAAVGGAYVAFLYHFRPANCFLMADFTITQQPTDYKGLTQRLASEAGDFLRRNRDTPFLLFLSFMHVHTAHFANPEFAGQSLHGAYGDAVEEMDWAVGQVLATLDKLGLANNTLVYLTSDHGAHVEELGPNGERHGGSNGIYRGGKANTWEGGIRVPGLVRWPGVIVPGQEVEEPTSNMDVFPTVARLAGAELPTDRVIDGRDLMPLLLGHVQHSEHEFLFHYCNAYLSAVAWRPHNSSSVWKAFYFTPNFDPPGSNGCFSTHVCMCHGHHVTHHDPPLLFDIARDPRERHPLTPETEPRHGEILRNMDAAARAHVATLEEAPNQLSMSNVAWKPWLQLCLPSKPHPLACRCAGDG
Put plainly: In vivo inhibition of oestrone sulphatase activity in rat liver. The conditions noted are these: 24 hours after single oral dose in propylene glycol; for % Inhibition of oestrone sulphatase in vivo: 10 mg/Kg. The method, then:
FIG. 11 presents in vivo inhibition of oestrone sulphatase activity in rat liver for two isoflavones according to the present invention. […] Compounds were administered as a single 10 mg/Kg dose. Oestrone sulphatase activity was assayed in tissue samples obtained 24 h after drug administration.

Where “and” joins values, the source holds several entries; their conditions need not be identical. Identical values can stand only once. Bounds are passed on as bounds.

For the compound `NS(=O)(=O)Oc1ccc2c(=O)cc(-c3ccccc3)oc2c1` [Compound 1, Flavone-7-O-sulphamate], the “% Inhibition of sulphatase activity in MCF-7 cells” value (shortened to “% Inhibition of sulphatase activity”) in series [1] (0.1 μM) amounted to 0.30 ± 0.2%; in series [1] (1 μM), 1.8 ± 1.0%; in series [1] (10 μM), 4.9 ± 0.3%.

`NS(=O)(=O)Oc1ccc2oc(-c3ccccc3)cc(=O)c2c1` [Compound 2, Flavone-6-O-sulphamate]: the “% Inhibition of sulphatase activity” value in series [1] (1 μM) was 99.1 ± 0.6%; in series [1] (10 μM) it was 98.9 ± 1.3%.

In the case of `COc1cc2oc(-c3ccccc3)cc(=O)c2c(O)c1OS(N)(=O)=O` [Compound 4, 5-Hydroxy-7-methoxy flavone-6-O-sulphamate], the “% Inhibition of sulphatase activity” value in series [1] (0.1 μM) is 11 ± 2.7%; in series [1] (1 μM) it was 51 ± 3.0%; in series [1] (10 μM) it was 78 ± 1.7%.

As to `COc1cc(O)c2c(=O)cc(-c3ccc(OS(N)(=O)=O)cc3)oc2c1` [Compound 5, 5-Hydroxy-7-methoxy-flavone-4′-O-sulphamate], the “% Inhibition of sulphatase activity” value worked out at 35 ± 4.0% in series [1] (0.1 μM), 88 ± 3.1% in series [1] (1 μM) and 99 ± 0.6% in series [1] (10 μM).

On to `COc1ccc(-c2cc(=O)c3c(O)c(OC)c(OC)cc3o2)cc1OS(N)(=O)=O` [Compound 6, 5-Hydroxy 4′,6,7-Trimethoxy flavone-3′-O-sulphamate], for which the “% Inhibition of sulphatase activity” value was “* (*Inactive)” in series [1] (0.1 μM), 18 ± 6.1% in series [1] (1 μM) and 27 ± 3.5% in series [1] (10 μM).

With `COc1ccc(-c2cc(=O)c3c(OC)c(OC)c(OC)cc3o2)cc1OS(N)(=O)=O` [Compound 7, 4′,5,6,7-Tetramethoxy flavone-3′-O-sulphamate], the “% Inhibition of sulphatase activity” value stood at 29 ± 0.8% in series [1] (0.1 μM), 23 ± 1.8% in series [1] (1 μM) and 12 ± 0.5% in series [1] (10 μM).

As for `NS(=O)(=O)Oc1ccc(-c2cc(=O)c3ccccc3o2)cc1OS(N)(=O)=O` [Compound 8, Flavone-3′,4′-O,O-bisulphamate], the “% Inhibition of sulphatase activity” value was “* (*Inactive)” in series [1] (0.1 μM), 13 ± 8.0% in series [1] (1 μM) and 29 ± 1.3% in series [1] (10 μM).

In the case of `NS(=O)(=O)Oc1ccc(-c2cc(=O)c3c(O)cc(OS(N)(=O)=O)cc3o2)cc1` [Compound 9, 5-Hydroxy flavone-4′,7-O,O-bisulphamate], the “% Inhibition of sulphatase activity” value is 8 ± 2.6% in series [1] (0.1 μM), 79 ± 0.8% in series [1] (1 μM) and 98 ± 0.4% in series [1] (10 μM).

Consider `NS(=O)(=O)Oc1cc(O)c2c(=O)c(OS(N)(=O)=O)c(-c3ccccc3)oc2c1` [Compound 10, 5-Hydroxy flavone-3,7-O,O-bisulphamate], for which the “% Inhibition of sulphatase activity” value in series [1] (0.1 μM) is on record as “* (*Inactive)”; in series [1] (1 μM) it was 8 ± 6.4%; in series [1] (10 μM), 12 ± 7.5%.

`COc1ccc(-c2oc3cc(OS(N)(=O)=O)cc(O)c3c(=O)c2OS(N)(=O)=O)cc1` [Compound 11, 5-Hydroxy-4′-methoxy flavone-3,7-O,O-bisulphamate]: the “% Inhibition of sulphatase activity” value in series [1] (0.1 μM), in series [1] (1 μM) and in series [1] (10 μM) was “* (*Inactive)” throughout.

With `COc1cc(-c2oc3cc(OS(N)(=O)=O)cc(O)c3c(=O)c2OS(N)(=O)=O)cc(OC)c1OC` [Compound 12, 5-Hydroxy-3′,4′,5′-Trimethoxy flavone-3,7-O,O-bisulphamate], the “% Inhibition of sulphatase activity” value in series [1] (0.1 μM), in series [1] (1 μM) and in series [1] (10 μM) was “* (*Inactive)” each time.

On to `COc1cc(-c2oc3cc(O)cc(O)c3c(=O)c2OS(N)(=O)=O)cc(OC)c1OC` [Compound 13, 5,7-Dihydroxy-3′,4′,5′-Trimethoxy flavone-3-O-sulphamate], for which the “% Inhibition of sulphatase activity” value in series [1] (0.1 μM), in series [1] (1 μM) and in series [1] (10 μM) was “* (*Inactive)” throughout.

As to `COc1cc(-c2oc3cc(OS(N)(=O)=O)ccc3c(=O)c2OS(N)(=O)=O)cc(OC)c1OC` [Compound 14, 3′,4′,5′-Trimethoxy flavone-3,7-O,O-bisulphamate], the “% Inhibition of sulphatase activity” value in series [1] (0.1 μM), in series [1] (1 μM) and in series [1] (10 μM) was “* (*Inactive)” each time.

For `COc1cc(-c2oc3cc(O)ccc3c(=O)c2OS(N)(=O)=O)cc(OC)c1OC` [Compound 15, 7-Hydroxy 3′,4′,5′-Trimethoxy flavone-3-O-sulphamate], the “% Inhibition of sulphatase activity” value in series [1] (0.1 μM), in series [1] (1 μM) and in series [1] (10 μM) was “* (*Inactive)” throughout.

With `COc1ccc(-c2coc3cc(OS(N)(=O)=O)cc(O)c3c2=O)cc1` [Compound 16, 5-Hydroxy-4′-methoxyisoflavone 7-O-sulphamate], the “% Inhibition of aromatase activity in placental microsomes at 10 μM” value (shortened to “% Inhibition of aromatase activity”) at aromatase was “* (*Inactive)”. The “% Inhibition of sulphatase activity” value is reported as “* (*Inactive)” in series [1] (0.1 μM), 11 ± 3.0% in series [1] (1 μM) and 37 ± 1.7% in series [1] (10 μM).

For the compound `NS(=O)(=O)Oc1ccc(-c2coc3cc(OS(N)(=O)=O)cc(O)c3c2=O)cc1` [Compound 17, 5-Hydroxy isoflavone-4′,7-O,O-bisulphamate], the “% Inhibition of aromatase activity” value on aromatase was “* (*Inactive)”. Besides, the “% Inhibition of sulphatase activity” value in series [1] (0.1 μM) was 22–87% and 28 ± 1.7%; in series [1] (1 μM), 79–99%. Moreover, the “% Inhibition of oestrone sulphatase in vivo” value (“% Inhibition … in vivo” below) at oestrone sulphatase was 81.4 ± 3.2%.

Regarding `NS(=O)(=O)Oc1ccc(-c2coc3cc(O)cc(O)c3c2=O)cc1` [Compound 18, 5,7-Dihydroxy isoflavone-4′-O-sulphamate], the “% Inhibition of aromatase activity” value at aromatase was “* (*Inactive)”. Further, the results for the “% Inhibition of sulphatase activity” value in series [1] (0.1 μM), in series [1] (1 μM) and in series [1] (10 μM) were 23 ± 2.2%, 83 ± 2.7% and 99 ± 0.7%, respectively. The “% Inhibition … in vivo” value on oestrone sulphatase is 62.0 ± 4.7%.

`NS(=O)(=O)Oc1ccc(-c2coc3cc(OS(N)(=O)=O)ccc3c2=O)cc1` [Compound 19, Isoflavone-4′,7-O,O-bisulphamate]: the “% Inhibition of aromatase activity” value on aromatase is “* (*Inactive)”. For the same compound, on oestrone sulphatase, the “% Inhibition … in vivo” value turned out to be 71.4 ± 2.9%.

With `COc1ccc(C2CC(=O)c3c(O)cc(OS(N)(=O)=O)cc3O2)cc1OS(N)(=O)=O` (stereo not drawn) [Compound 21, 5-Hydroxy 4′-methoxy flavanone-3′,7-O,O-bisulphamate], the results for the “% Inhibition of sulphatase activity” value in series [1] (0.1 μM), in series [1] (1 μM) and in series [1] (10 μM) were 2 ± 1.3%, 8 ± 0.6% and 9 ± 1.2%, respectively.

In the case of `C[C@]12CC[C@@H]3c4ccc(OS(N)(=O)=O)cc4CC[C@H]3[C@@H]1CCC2=O` [EMATE, oestrone-3-sulphamate, reference compound], the inhibition (commonly the percentage by which the read-out fell short of the control) at 1 mg/kg against oestrone sulphatase (1 mg/Kg) is more than 99%.
